Laboratory results published in patent US10760110B2, “Antibiotic testing and screening system” (priority 2017, dated 2020).

Tested on: A. baumannii KW1 strains with β-lactamase plasmids
Test: Etest MIC of β-lactams, extended-spectrum β-lactamase, AmpC β-lactamase or carbapenemase (Table 18)
Assay type: cell-based, Acinetobacter baumannii
Conditions: production of each carbapenemase tested
Experimental: DNA fragments of the resistance genes along with their flanking regions were amplified from clinical plasmids via PCR with specific primer pairs. The resulting PCR fragments were digested and then cloned into the plasmid pYMAb5 or pYMAb5Tc. The resulting plasmids were then transformed into A. baumannii KW1 via electroporation.
The MICs of antibiotics were determined using the Etest (Biodisk AB, Sweden) according to the manufacturer's instructions. The MICs from the Etest, which fall between standard two-fold dilutions, were rounded up to the next highest two-fold value. The MICs of ceftazidime and cefotaxime against K. pneumoniae NVT1001 harbouring the pACYC177 plasmid with blaOXA-48 were further determined using a broth microdilution test according to the recommendations of the CLSI,^25 and the results were interpreted according to the breakpoints established by the CLSI in 2017.^25 Meanwhile, due to the lack of CLSI breakpoints in 2016 and 2017, the results for cephalothin were interpreted according to the breakpoints established by the CLSI in 2015,^26 and the results for moxifloxacin were interpreted according to the breakpoints established by the EUCAST in 2017.^27

C[C@H]1[C@H](NC(=O)/C(=N\OC(C)(C)C(=O)O)c2csc(N)n2)C(=O)N1S(=O)(=O)O [Aztreonam]
effects on the MIC: no increase effects
